Source: PubChem BioAssay (NCI)
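Step 1: Grow cells in 96-well plates. Step 2: Expose to compound for 48 hours at 5 concentrations. Step 3: Interpolate endpoints linearly; if unreached, use highest concentration. TGI is the concentration that stops growth completely.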

Columns and labels:
Test in all cases: NCI tumour cell line growth inhibition, 48 h
786-0 renal = system: 786-0 renal
A498 renal = system: A498 renal
A549 NSCLC = system: A549 NSCLC
ACHN renal = system: ACHN renal
BT-549 breast = system: BT-549 breast
CAKI-1 renal = system: CAKI-1 renal
CCRF-CEM leukemia = system: CCRF-CEM leukemia
COLO 205 colon = system: COLO 205 colon
DU-145 prostate = system: DU-145 prostate
EKVX NSCLC = system: EKVX NSCLC
HCC-2998 colon = system: HCC-2998 colon
HCT-116 colon = system: HCT-116 colon
HCT-15 colon = system: HCT-15 colon
HL-60(TB) leukemia = system: HL-60(TB) leukemia
HOP-62 NSCLC = system: HOP-62 NSCLC
HOP-92 NSCLC = system: HOP-92 NSCLC
HS 578T breast = system: HS 578T breast
HT29 colon = system: HT29 colon
IGROV1 ovarian = system: IGROV1 ovarian
K-562 leukemia = system: K-562 leukemia
KM12 colon = system: KM12 colon
LOX IMVI melanoma = system: LOX IMVI melanoma
M14 melanoma = system: M14 melanoma
MALME-3M melanoma = system: MALME-3M melanoma
MCF7 breast = system: MCF7 breast
MDA-MB-231 breast = system: MDA-MB-231 breast
MDA-MB-435 = system: MDA-MB-435
MDA-N = system: MDA-N
MOLT-4 leukemia = system: MOLT-4 leukemia
NCI-H226 lung = system: NCI-H226 lung
NCI-H23 lung = system: NCI-H23 lung
NCI-H460 lung = system: NCI-H460 lung
NCI-H522 lung = system: NCI-H522 lung
NCI/ADR-RES ovarian = system: NCI/ADR-RES ovarian
OVCAR-3 ovarian = system: OVCAR-3 ovarian
OVCAR-4 ovarian = system: OVCAR-4 ovarian
OVCAR-5 ovarian = system: OVCAR-5 ovarian
OVCAR-8 ovarian = system: OVCAR-8 ovarian
PC-3 prostate = system: PC-3 prostate
RPMI-8226 leukemia = system: RPMI-8226 leukemia
RXF 393 renal = system: RXF 393 renal
SF-268 CNS = system: SF-268 CNS
SF-295 CNS = system: SF-295 CNS
SF-539 CNS = system: SF-539 CNS
SK-MEL-2 melanoma = system: SK-MEL-2 melanoma
SK-MEL-28 melanoma = system: SK-MEL-28 melanoma
SK-MEL-5 melanoma = system: SK-MEL-5 melanoma
SK-OV-3 ovarian = system: SK-OV-3 ovarian
SN12C renal = system: SN12C renal
SNB-19 CNS = system: SNB-19 CNS
SNB-75 CNS = system: SNB-75 CNS
SR leukemia = system: SR leukemia
SW-620 colon = system: SW-620 colon
T-47D breast = system: T-47D breast
TK-10 renal = system: TK-10 renal
U251 CNS = system: U251 CNS
UACC-257 melanoma = system: UACC-257 melanoma
UACC-62 melanoma = system: UACC-62 melanoma
UO-31 renal = system: UO-31 renal
DMS 114 small cell lung = system: DMS 114 small cell lung

## O=C1c2ccccc2C(=O)N1CCCC(=O)n1cc(F)c(=O)[nH]c1=O
786-0 renal
  TGI: > 100 µM
A498 renal
  TGI: > 100 µM
A549 NSCLC
  TGI: > 100 µM
ACHN renal
  TGI: > 100 µM
BT-549 breast
  TGI: > 100 µM
CAKI-1 renal
  TGI: > 100 µM
CCRF-CEM leukemia
  TGI: > 100 µM
COLO 205 colon
  TGI: > 100 µM
DU-145 prostate
  TGI: > 100 µM
EKVX NSCLC
  TGI: > 100 µM
HCC-2998 colon
  TGI: > 100 µM
HCT-116 colon
  TGI: > 100 µM
HCT-15 colon
  TGI: > 100 µM
HL-60(TB) leukemia
  TGI: > 100 µM
HOP-62 NSCLC
  TGI: > 24.6 µM
HOP-92 NSCLC
  TGI: > 100 µM
HS 578T breast
  TGI: > 100 µM
HT29 colon
  TGI: > 100 µM
IGROV1 ovarian
  TGI: > 100 µM
K-562 leukemia
  TGI: > 100 µM
KM12 colon
  TGI: > 100 µM
LOX IMVI melanoma
  TGI: > 100 µM
M14 melanoma
  TGI: > 100 µM
MALME-3M melanoma
  TGI: > 100 µM
MCF7 breast
  TGI: > 100 µM
MDA-MB-231 breast
  TGI: > 100 µM
MDA-MB-435
  TGI: > 100 µM
MDA-N
  TGI: > 100 µM
MOLT-4 leukemia
  TGI: > 100 µM
NCI-H226 lung
  TGI: > 100 µM
NCI-H23 lung
  TGI: > 100 µM
NCI-H460 lung
  TGI: > 100 µM
NCI-H522 lung
  TGI: > 100 µM
NCI/ADR-RES ovarian
  TGI: > 100 µM
OVCAR-3 ovarian
  TGI: > 79 µM
OVCAR-4 ovarian
  TGI: > 100 µM
OVCAR-5 ovarian
  TGI: > 100 µM
OVCAR-8 ovarian
  TGI: > 100 µM
PC-3 prostate
  TGI: > 100 µM
RPMI-8226 leukemia
  TGI: > 77.5 µM
RXF 393 renal
  TGI: > 100 µM
SF-268 CNS
  TGI: > 100 µM
SF-295 CNS
  TGI: > 100 µM
SF-539 CNS
  TGI: > 100 µM
SK-MEL-2 melanoma
  TGI: > 100 µM
SK-MEL-28 melanoma
  TGI: > 100 µM
SK-MEL-5 melanoma
  TGI: > 100 µM
SK-OV-3 ovarian
  TGI: > 100 µM
SN12C renal
  TGI: > 100 µM
SNB-19 CNS
  TGI: > 100 µM
SNB-75 CNS
  TGI: > 100 µM
SR leukemia
  TGI: > 100 µM
SW-620 colon
  TGI: > 100 µM
T-47D breast
  TGI: > 100 µM
TK-10 renal
  TGI: > 100 µM
U251 CNS
  TGI: > 100 µM
UACC-257 melanoma
  TGI: > 100 µM
UACC-62 melanoma
  TGI: > 100 µM
UO-31 renal
  TGI: > 100 µM

## Cc1cc(C)c([S@@](=O)O[C@@H]2[C@H]3OC(C)(C)O[C@H]3O[C@@H]2[C@H]2COC(C)(C)O2)c(C)c1
786-0 renal
  TGI: 64.6 µM
A498 renal
  TGI: 47.2 µM
A549 NSCLC
  TGI: > 100 µM
ACHN renal
  TGI: 33.5 µM
BT-549 breast
  TGI: 30.6 µM
CAKI-1 renal
  TGI: 9.11 µM
CCRF-CEM leukemia
  TGI: 88.7 µM
COLO 205 colon
  TGI: 38.9 µM
DU-145 prostate
  TGI: 89.2 µM
EKVX NSCLC
  TGI: 61.2 µM
HCC-2998 colon
  TGI: 41.7 µM
HCT-116 colon
  TGI: 57 µM
HCT-15 colon
  TGI: > 100 µM
HL-60(TB) leukemia
  TGI: 28.7 µM
HOP-62 NSCLC
  TGI: 51.3 µM
HOP-92 NSCLC
  TGI: 38.4 µM
HS 578T breast
  TGI: > 100 µM
HT29 colon
  TGI: 85.7 µM
IGROV1 ovarian
  TGI: 18 µM
K-562 leukemia
  TGI: 76.8 µM
KM12 colon
  TGI: 40.2 µM
LOX IMVI melanoma
  TGI: 30.1 µM
M14 melanoma
  TGI: 59.4 µM
MALME-3M melanoma
  TGI: 80.1 µM
MCF7 breast
  TGI: 57.9 µM
MDA-MB-231 breast
  TGI: 60.5 µM
MDA-MB-435
  TGI: 40.2 µM
MDA-N
  TGI: 65.4 µM
MOLT-4 leukemia
  TGI: 43.3 µM
NCI-H226 lung
  TGI: 53.2 µM
NCI-H23 lung
  TGI: 89.5 µM
NCI-H460 lung
  TGI: 62.9 µM
NCI-H522 lung
  TGI: 24.1 µM
NCI/ADR-RES ovarian
  TGI: 57 µM
OVCAR-3 ovarian
  TGI: 41.6 µM
OVCAR-4 ovarian
  TGI: 42.8 µM
OVCAR-5 ovarian
  TGI: 83.9 µM
OVCAR-8 ovarian
  TGI: 37.6 µM
PC-3 prostate
  TGI: 41.2 µM
RPMI-8226 leukemia
  TGI: 50.5 µM
RXF 393 renal
  TGI: 36.3 µM
SF-268 CNS
  TGI: 95.3 µM
SF-295 CNS
  TGI: > 100 µM
SF-539 CNS
  TGI: 39.5 µM
SK-MEL-2 melanoma
  TGI: 86.1 µM
SK-MEL-28 melanoma
  TGI: 90.5 µM
SK-MEL-5 melanoma
  TGI: 97.9 µM
SK-OV-3 ovarian
  TGI: > 100 µM
SN12C renal
  TGI: 42.7 µM
SNB-19 CNS
  TGI: > 100 µM
SNB-75 CNS
  TGI: 59.6 µM
SR leukemia
  TGI: 49 µM
SW-620 colon
  TGI: 49.3 µM
T-47D breast
  TGI: > 100 µM
TK-10 renal
  TGI: 59.7 µM
U251 CNS
  TGI: 44.1 µM
UACC-257 melanoma
  TGI: 46.2 µM
UACC-62 melanoma
  TGI: 51.6 µM
UO-31 renal
  TGI: 33.2 µM

## CCCC(=O)OC[n+]1ccc2c(C)c3[nH]c4ccc(OC)cc4c3c(C)c2c1
ACHN renal
  TGI: 7.47 µM
CAKI-1 renal
  TGI: 13.6 µM
DMS 114 small cell lung
  TGI: 3.78 µM
HL-60(TB) leukemia
  TGI: 1.82 µM
HOP-62 NSCLC
  TGI: 3.08 µM
KM12 colon
  TGI: 1.77 µM
MALME-3M melanoma
  TGI: > 100 µM
MOLT-4 leukemia
  TGI: 0.322 µM
OVCAR-5 ovarian
  TGI: 2.31 µM
RPMI-8226 leukemia
  TGI: 0.54 µM
SF-268 CNS
  TGI: > 100 µM
SK-MEL-2 melanoma
  TGI: 7.12 µM
SK-OV-3 ovarian
  TGI: 14.9 µM
SR leukemia
  TGI: 2.89 µM
TK-10 renal
  TGI: 20.1 µM
U251 CNS
  TGI: > 100 µM
UACC-257 melanoma
  TGI: > 100 µM
UO-31 renal
  TGI: 6.38 µM
